Measurements: patent publication US20100120788A1, “IDENTIFICATION OF POLYNUCLEOTIDES FOR […] OF COMPOUNDS THAT […] WITH AND/OR MODULATE PROTEIN TYROSINE KINASES AND/OR PROTEIN TYROSINE KINASE […] IN PROSTATE CELLS” (Bristol-Myers Squibb Company, priority 2007, published 2010)

How the values were obtained:
uPA protein = uPA protein level in plasma of mice bearing PC3 xenograft tumors (ELISA); assay type: in vivo, nu/nu athymic mice; details: 30 mg/kg orally twice a day; following first week of treatment
Protocol: FIG. 5. […] Xenograft tumors were established subcutaneously in nu/nu athymic mice. The mice were divided into three groups each with 8 mice after tumors had reached approximately 200 mg. […] Dasatinib was administered orally twice a day on a 5-day-on 2-day-off schedule for 20 doses. The tumor size measurement and blood sampling were performed prior to treatment and weekly for two weeks after treatment initiation. […] Experiments were performed as described in Example 2.
The mice were divided into three groups each with 8 mice after tumors had reached approximately 200 mg. […] Dasatinib was administered orally twice a day on a 5-day-on 2-day-off schedule for 20 doses. The tumor size measurement and blood sampling were performed prior to treatment and weekly for two weeks after treatment initiation. Tumor weight was determined using the following equation: tumor weight=(length*width^2)/2.

DUCaP = experiment: In vitro cell proliferation assay (MTS); assay type: cell-based, human; details: DUCaP cells
Protocol: (§1) The IC50 for each cell line was assessed in by MTS assays as described in Example 1 (Methods). […] The IC50 unit is μM.
(§2) All cell lines were obtained from the American Type Culture Collection (Manassas, Va.), except DUCaP, which was obtained from Dr. Kenneth Pienta at University of Michigan. PWR1E and MDAPCa2b cells were grown in BRFF-HPC1 serum-free medium (AthenaES, Baltimore, Md.), and all other cells were cultured in RPMI 1640 supplemented with 10% fetal bovine serum, 100 IU/ml penicillin, and […] (Invitrogen, Carlsbad, Calif.). DUCaP cells were maintained in the presence of an immortalized mouse fibroblast cell line, which formed a layer beneath DUCaP cells that easily dislodged. Cells were incubated at 37° C. with circulation of 5% CO2.
(§3) The optimum number of cells to seed in 96-well plates to achieve linearity were determined in pilot experiments. Cells were plated at density of 2000-5000 cells/well into 96-well plates and cultured overnight. Cells were then treated with dasatinib at serially diluted concentrations. Three days later, MTS was added to the medium and quantified on a SPECTRAMAX® photometric plate reader (Molecular Devices, Sunnyvale, Calif.) at 490 nm. The results were plotted against drug concentrations and IC50s were calculated using Prism4 software (GraphPad, San Diego, Calif.). The IC50 was the concentration of dasatinib that would reduce cell proliferation by 50% compared to control. Minimum three independent assays were performed for each cell line. […] In the latter case, the concentration of dasatinib that was able to consistently reduce cell proliferation was used as IC50. […] Dasatinib stock, dissolved in DMSO, was 10 mg/ml.

PC3 = experiment: In vitro cell proliferation assay (MTS); assay type: cell-based, human; details: PC3 cells
Protocol: as §1, §2, §3

VCaP = experiment: In vitro cell proliferation assay (MTS); assay type: cell-based, human; details: VCaP cells
Protocol: as §1, §2, §3

RWPE2 = experiment: In vitro cell proliferation assay (MTS); assay type: cell-based, human; details: RWPE2 cells
Protocol: as §1, §2, §3

PWR1E = experiment: In vitro cell proliferation assay (MTS); assay type: cell-based, human; details: PWR1E cells
Protocol: as §1, §2, §3

LNCaP = experiment: In vitro cell proliferation assay (MTS); assay type: cell-based, human; details: LNCaP cells
Protocol: as §1, §2, §3

[1] = Homo sapiens, 72 h, MTS, three days, highly resistant: concentration that consistently reduced proliferation used as IC50, read-out: mean IC50 (μM) to BMS-A
[2] = Homo sapiens, 72 h, MTS, three days, read-out: mean IC50 (μM) to BMS-A

For `Cc1nc(Nc2ncc(C(=O)Nc3c(C)cccc3Cl)s2)cc(N2CCN(CCO)CC2)n1` [BMS-A, N-(2-chloro-6-methylphenyl)-2-[[6-[4-(2-hydroxyethyl)-1-piperazinyl]-2-methyl-4-pyrimidinyl]amino]-5-thiazolecarboxamide], the “reduction of plasma uPA level” value (uPA protein) was ~30%, the Classification (DUCaP; based on IC50) was “Resistant (those having an IC50 above 0.2 μm were considered to be resistant)” and the IC50 (DUCaP; [1]) was 2.5 µM. The IC50 (PC3; Homo sapiens, PC-3, 72 h, MTS, three days, read-out: mean IC50 (μM) to BMS-A) was 0.051 µM, the Classification (PC3; based on IC50) was “Sensitive (The cell lines with an IC50 lower than 0.2 μm were defined as sensitive to the compound)” and the IC50 (VCaP; [1]) was 2 µM. For the same compound, the Classification (VCaP; based on IC50) was “Resistant (those having an IC50 above 0.2 μm were considered to be resistant)”, the IC50 (RWPE2; [2]) was 0.151 µM and the Classification (RWPE2; based on IC50) was “Sensitive (The cell lines with an IC50 lower than 0.2 μm were defined as sensitive to the compound)”. For the same compound, the IC50 (PWR1E; Homo sapiens, PWR-1E, 72 h, MTS, three days, read-out: mean IC50 (μM) to BMS-A) was 0.145 µM, the Classification (PWR1E; based on IC50) was “Sensitive (The cell lines with an IC50 lower than 0.2 μm were defined as sensitive to the compound)” and the IC50 (LNCaP; [2]) was 0.068 µM. For the same compound, the Classification (LNCaP; based on IC50) was “Sensitive (The cell lines with an IC50 lower than 0.2 μm were defined as sensitive to the compound)”.
